From patent publication US20250144067A1, “PERSONALIZED STARVATION THERAPY FOR CANCER” (Faeth Therapeutics, Inc., priority 2021, published 2025)
Counter-ions that a name gives are not always drawn. Like-named read-outs stand apart in the source and are kept apart here.

Experiments:
[1] = system: NCI-H292 lung cancer cells; experiment: FDA drug screening, complete media vs cholesterol-free media with simvastatin (TABLE 2); format: cell-based, human
[2] = system: NCI-H292 lung cancer cells; experiment: FDA drug screening, complete media vs cholesterol-free media without statin (TABLE 1); format: cell-based, human
[3] = NCI-H292 cells, FDA drug library screen, cholesterol-free media with simvastatin 0.04 μM
[4] = NCI-H292 cells, FDA drug library screen, complete media
[5] = complete media minus cholesterol-free media + simvastatin, >0 enhanced anti-cancer activity, about 0 neutral, <0 antagonist
[6] = NCI-H292 cells, cholesterol-free media without statin, FDA drug library screen
[7] = NCI-H292 cells, complete media, FDA drug library screen
[8] = complete vs cholesterol-free media, >0 enhanced anti-cancer activity, about 0 neutral, <0 antagonist
[9] = Complete minus Cholesterol-free, >0 enhanced anti-cancer activity, about 0 neutral, <0 antagonist
[10] = NCI-H292 cells, drug in cholesterol-free media with simvastatin 0.04 μM
[11] = NCI-H292 cells, drug in complete media
[12] = complete media vs cholesterol-free media + simvastatin (0.04 μM), >0 enhanced anti-cancer activity, about 0 neutral, <0 antagonist
[13] = NCI-H292 cells, cholesterol-free media with simvastatin 0.04 μM, cell growth value in FDA drug screen
[14] = NCI-H292 cells, complete media, cell growth value in FDA drug screen
[15] = Complete minus Cholesterol-free, greater than 0 enhanced anti-cancer activity, about 0 neutral, below 0 antagonist
[16] = NCI-H292 cells, FDA drug library screen, cholesterol-free media without statin
[17] = Complete minus Cholesterol-free, […]
[18] = NCI-H292 cells in cholesterol-free media without statin
[19] = NCI-H292 cells in complete media

**Q.** What does the source list for `CN(C)c1ccc(O)c2c1C[C@H]1C[C@H]3[C@H](N(C)C)C(O)=C(C(N)=O)C(=O)[C@@]3(O)C(O)=C1C2=O` [Minocycline (hydrochloride)]?
**A.** Cholesterol-free media + simvastatin (0.04 μM) [1, 3]: 1.589; Complete Media [1, 4]: 1.958; Difference [1, 5]: 0.37; Cholesterol-free [2, 6]: 0.8959; Complete [2, 7]: 1.177; Difference [2, 8]: 0.28

**Q.** Bazedoxifene (acetate) was tested. Which “Cholesterol-free media + simvastatin (0.04 μM)” value [1, 3] did it give?
**A.** 0.4477

**Q.** What about the “Complete Media” value [1, 4] of the same compound?
**A.** 0.8485

**Q.** What about the Difference [1, 5] of the same compound?
**A.** 0.40

**Q.** What about the Difference [2, 9] of the same compound?
**A.** −0.29

**Q.** And the Complete ([2]; NCI-H292 cells, complete media)?
**A.** 0.8636

**Q.** Which “Cholesterol-free media + simvastatin (0.04 μM)” value [1, 10] does the source give for `COCCOC(=O)C1=C(C)NC(C)=C(C(=O)OC/C=C/c2ccccc2)C1c1cccc([N+](=O)[O-])c1` (centres unmarked) [Cilnidipine] here?
**A.** 0.9073

**Q.** And the “Complete Media” value [1, 11]?
**A.** 0.7251

**Q.** And the Difference [1, 12]?
**A.** −0.18

**Q.** What about the Cholesterol-free [2, 6] of the same compound?
**A.** 1.441

**Q.** And the Complete [2, 7]?
**A.** 1.574

**Q.** And the Difference [2, 8]?
**A.** 0.13

**Q.** For `CCOC(=O)C1=C[C@]2(CC)CCCN3CCc4c(n1c1ccccc41)[C@@H]32` [Vinpocetine], which “Cholesterol-free media + simvastatin (0.04 μM)” value [1, 13] is on record?
**A.** 0.854

**Q.** And the “Complete Media” value [1, 14]?
**A.** 0.8952

**Q.** And the Difference [1, 5]?
**A.** 0.04

**Q.** And the Difference [2, 15]?
**A.** −0.09

**Q.** What about the Cholesterol-free [2, 16] of the same compound?
**A.** 0.912

**Q.** And the Complete [2, 4]?
**A.** 0.8209

**Q.** Which results are given for `C=C1CC[C@@H]2[C@](C)(COC(=O)CCC(=O)O)[C@H](OC(=O)CCC(=O)O)CC[C@@]2(C)[C@@H]1/C=C/C1=CCOC1=O` [Dehydroandrographolide succinate]?
**A.** Cholesterol-free media + simvastatin (0.04 μM) ([1]; NCI-H292 cells, cholesterol-free media with simvastatin 0.04 μM, […]): 0.8998; Complete Media ([1]; NCI-H292 cells, complete media, […]): 1.004; Difference ([1]; complete media minus cholesterol-free media + simvastatin, […]): 0.10; Difference [2, 17]: −1.21; Cholesterol-free [2, 18]: 2.195; Complete [2, 19]: 0.9855

**Q.** Which “Cholesterol-free media + simvastatin (0.04 μM)” value [1, 10] does the source give for Metoprolol (Succinate) here?
**A.** 1.072

**Q.** What about the “Complete Media” value [1, 11] of the same compound?
**A.** 0.8786

**Q.** What about the Difference [1, 12] of the same compound?
**A.** −0.19

**Q.** What about the Difference [2, 9] of the same compound?
**A.** 0.02

**Q.** What about the Cholesterol-free [2, 6] of the same compound?
**A.** 0.9592

**Q.** And the Complete [2, 7]?
**A.** 0.9837

**Q.** For `CCC(=O)O[C@]1(C(=O)CCl)[C@@H](C)C[C@H]2[C@@H]3C[C@H](F)C4=CC(=O)C=C[C@]4(C)[C@@]3(F)[C@@H](O)C[C@@]21C` [Halobetasol (propionate)], which “Cholesterol-free media + simvastatin (0.04 μM)” value ([1]; NCI-H292 cells, cholesterol-free media with simvastatin 0.04 μM, FDA drug library screen (TABLE 2)) is on record?
**A.** 0.5775

**Q.** And the “Complete Media” value ([1]; NCI-H292 cells, complete media, FDA drug library screen (TABLE 2))?
**A.** 0.585

**Q.** And the Difference ([1]; complete media minus cholesterol-free media + simvastatin (0.04 μM), >0 enhanced anti-cancer activity, about 0 neutral, <0 antagonist)?
**A.** 0.01

**Q.** What about the Difference [2, 15] of the same compound?
**A.** −0.18

**Q.** What about the Cholesterol-free [2, 16] of the same compound?
**A.** 0.7462

**Q.** What about the Complete [2, 4] of the same compound?
**A.** 0.5641

**Q.** `CN1CCc2c(c3ccccc3n2Cc2ccccc2)C1` [Mebhydrolin] was tested. Which “Cholesterol-free media + simvastatin (0.04 μM)” value [1, 3] did it give?
**A.** 0.7768

**Q.** What about the “Complete Media” value [1, 4] of the same compound?
**A.** 0.6781

**Q.** And the Difference [1, 12]?
**A.** −0.10

**Q.** What about the Difference [2, 9] of the same compound?
**A.** −0.31

**Q.** And the Cholesterol-free ([2]; NCI-H292 cells, cholesterol-free media without statin)?
**A.** 1.813

**Q.** And the Complete ([2]; NCI-H292 cells, complete media)?
**A.** 1.508

**Q.** Which results are given for `CC[C@H]1OC(=O)[C@H](C)[C@@H](O[C@H]2C[C@@](C)(OC)[C@@H](O)[C@H](C)O2)[C@H](C)[C@@H](O[C@@H]2O[C@H](C)C[C@H](N(C)C)[C@H]2O)[C@](C)(O)C[C@@H](C)/C(=N\OCOCCOC)[C@H](C)[C@@H](O)[C@]1(C)O` [Roxithromycin]?
**A.** Cholesterol-free media + simvastatin (0.04 μM) [1, 3]: 0.9837; Complete Media [1, 4]: 0.8382; Difference [1, 12]: −0.15; Cholesterol-free [2, 6]: 0.9904; Complete [2, 7]: 1.336; Difference [2, 8]: 0.35

**Q.** For `CC1=C2[C@H]3OC(=O)[C@@H](C)[C@@H]3CC[C@@]2(C)C=CC1=O` [Santonin], which “Cholesterol-free media + simvastatin (0.04 μM)” value [1, 10] is on record?
**A.** 1.229

**Q.** And the “Complete Media” value [1, 11]?
**A.** 1.004

**Q.** And the Difference ([1]; complete media vs cholesterol-free media + simvastatin (0.04 μM), […])?
**A.** −0.23

**Q.** What about the Difference [2, 17] of the same compound?
**A.** −0.53

**Q.** What about the Cholesterol-free [2, 18] of the same compound?
**A.** 1.389

**Q.** And the Complete [2, 19]?
**A.** 0.8572

**Q.** `O=C(NCCO[N+](=O)[O-])c1cccnc1` [Nicorandil] was tested. Which “Cholesterol-free media + simvastatin (0.04 μM)” value [1, 13] did it give?
**A.** 0.9809

**Q.** What about the “Complete Media” value [1, 14] of the same compound?
**A.** 1.055

**Q.** And the Difference [1, 5]?
**A.** 0.07

**Q.** And the Cholesterol-free [2, 6]?
**A.** 0.8284

**Q.** What about the Complete [2, 7] of the same compound?
**A.** 1.354

**Q.** And the Difference [2, 8]?
**A.** 0.53

**Q.** `CC(C)Cn1cnc2c(N)nc3ccccc3c21` [Imiquimod] was tested. Which “Cholesterol-free media + simvastatin (0.04 μM)” value [1] did it give?
**A.** 1.141

**Q.** And the “Complete Media” value [1]?
**A.** 0.8713

**Q.** And the Difference [1]?
**A.** −0.27

**Q.** And the Cholesterol-free [2]?
**A.** 0.6962

**Q.** What about the Complete [2] of the same compound?
**A.** 1.326

**Q.** What about the Difference [2] of the same compound?
**A.** 0.63
